From publication PMC12951551, “Do Amino-Oxetanes Resemble Amides? A Matched Molecular Pairs Property and Structural Comparison” (Journal of Medicinal Chemistry, 2026)
In brackets after ≈: the same amount, converted by molar mass.

How the values were obtained:
[1] = Shake flask LogD (SFLogD) assay; format: physicochemical; details: for logD: pH = 7.4, octanol/water shake flask, average of 2 runs unless otherwise stated
Procedure: (§1) Permeability assay (RRCK): Ralph Russ canine kidney cells were used for permeability measurements using a cell monolayer in 96-transwell format. The detailed assay conditions have been reported previously.9 Test compounds were added to the donor wells and a buffer was added to the receiver wells to start the apical to basolateral transport assay.
(§2) Time 0 and 1.5 h incubation samples were taken for LC-MS/MS analysis. Apparent permeability (Papp) was calculated using the equation below (1), where Area is the surface area of the cell monolayer (0.0625 cm2), CD(0) is the […]

[2] = test system: human hepatocytes; assay: Human Hepatocyte (HHEP) stability assay, clearance; format: in vitro ADME; details: for HHEPG clearance: human hepatocytes, 0.5 million cells/mL, 1 µM test compound
Procedure: Human Hepatocyte (HHEP) assay: The high throughput HHEP stability assay was performed in a 384-well format (Greiner Bio-One, Monroe, NC). The cryopreserved HHEP were thawed, and re-suspended in Williams E medium (WEM, custom formula number 91-5233EC; Invitrogen, Grand Island, NY) supplemented with HEPES and Na2CO3. The cells were counted using the Trypan Blue exclusion method. A multidrop liquid dispenser (Multidrop DW, Thermo Scientific, Waltham, MA) was used to add the HHEP suspensions to the 384-well plates. The cell plates were covered and transferred to a Cytomat 2 incubator (ThermoFisher) and Biomek i7 (Beckman Coulter, Indianapolis, IN), equipped with three 3position MéCour heat exchangers. Test compounds were diluted on the Biomek i7 with buffer (15 µL) and added to the HHEP (30 µL). The final incubation contained 0.5 million cells/mL and 1 µM test compound in 45 µL total volume containing 0.01% DMSO. The incubation was carried out at 37 °C in the Cytomat 2 incubator (relative humidity ≥ 90%, 5% CO2/95% air). At various time points (2, 4, 11, 45, 75, 120, and 240 min), the plate was pulled out from the incubator by the Biomek i7 robot and put on the MéCour heated exchanger. Samples (3 µL) were transferred to a 384-well plate containing 30 µL acetonitrile with an internal standard (IS) to quench the reaction. Water (60 µL) was added to the quenched plate to dilute the organic solvent content for LC-MS/MS analysis. The plates were centrifuged at 3000 rpm for 10 min at 4 °C, sealed and subsequently analyzed using LC-MS/MS without further transfer of the supernatant.
Propranolol (CYP2D6), midazolam (CYP3A) and triazolam (CYP3A, low clearance), naloxone (UGT2B7), carbazeran (AO), and verapamil (CYP3A, CYP2C8) were used as positive controls. For CYP inhibition study, 1 mM ABT (a pan-cYP inhibitor) was pre-incubated with HHEP for 30 minutes at 37 °C before adding test compounds. Values are n >3 unless […]
as §1, §2

[3] = Kinetic solubility; format: physicochemical; details: for Kinetic solubility, in words: across acidic, neutral, and basic conditions, compared with benzamide counterpart; for solubility at 24 h: aqueous pH buffer, aqueous buffer, kinetic from dmso stock, 37 °C, 600 µM start
Procedure: Aqueous buffer preparation: pH 3: 50 µL of 1N hydrochloric acid was added to 500 mL of deionized water. The solution was titrated with 1N hydrochloric acid to pH 3, and back titrated with 1N sodium hydroxide. pH 7.4: 100 mM sodium phosphate buffer is made by adding 56.4 g of dibasic sodium phosphate and 10.3 g of monobasic sodium phosphate to 4 L of deionized water. 250 µL of 100 mM sodium phosphate buffer was diluted with 250 µL of deionized water. The solution was titrated with 1N hydrochloric acid to pH 7.4, and back titrated with 1N sodium hydroxide. pH 10: Fisher Scientific pH 10 buffer (SB116-500) containing potassium hydroxide, potassium carbonate, and potassium […]
pH 12.8: 30 mL of 1N NaOH was added to 200 mL of deionized water. The solution was titrated with 1N sodium hydroxide to pH 12.8 and back titrated with 1N hydrochloric acid.
Kinetic solubility: Samples were diluted to 600 µM in the appropriate pH buffer (pH: 3, 7.4, 10) and to 600 µM (assumed 100% solubility) in a DMSO standard. Samples were mixed thoroughly and incubated at 37 °C for 24 h.
Following incubation, pH samples were transferred to a […] PVDF (low binding) and filtered to remove any precipitate. The filtrate was collected and analyzed via MS/MS. The ratio of MS response (DMSO:pH) is taken and multiplied by the initial 600 µM concentration to determine the concentration (solubility) of the samples in pH buffers. […]
as §1, §2

[4] = Permeability assay (RRCK); format: in vitro ADME, canine; details: dog, MDCK, apical to basolateral, average of 2 runs, footnote b = only one replicate

SMILES: COc1ccc(C2(Nc3ccc(OC)nc3)COC2)cc1 [8a, 6-Methoxy-N-(3-(4-Methoxyphenyl)Oxetan-3-yl)Pyridin-3-Amine]
- logD [1]: 2.54
- HHEPG clearance [2]: 42 μL min^−1 million^−1
- Kinetic solubility, in words [3]: higher solubility
- solubility at 24 h ([3]; pH 3): 412 µM (≈ 118 µg/mL)
- solubility at 24 h ([3]; pH 7.4): 358 µM (≈ 103 µg/mL)
- solubility at 24 h ([3]; pH 10): 326 µM (≈ 93.3 µg/mL)
- Papp at 1.5 h [4]: 37.2 ×10⁻⁶ cm/s

SMILES: COc1ccc(C(=O)NCc2ccccc2)cc1 [2b, N-Benzyl-4-Methoxybenzamide]
- logD [1]: 2.74
- HHEPG clearance [2]: 30 μL min^−1 million^−1
- solubility at 24 h ([3]; pH 3): 114 µM (≈ 27.5 µg/mL)
- solubility at 24 h ([3]; pH 7.4): 91 µM (≈ 22 µg/mL)
- solubility at 24 h ([3]; pH 10): 76 µM (≈ 18.3 µg/mL)
- Papp at 1.5 h [4]: 38.1 ×10⁻⁶ cm/s

SMILES: COc1ccc(C2(Nc3ccc4c(c3)OC(F)(F)O4)COC2)cc1 [7a, 2,2-Difluoro-N-(3-(4-Methoxyphenyl)Oxetan-3-yl)Benzo[d][1,3]dioxol-5-Amine]
- HHEPG clearance, in words ([2]; compared with benzamide counterpart): significantly higher clearance than its benzamide counterpart
- solubility at 24 h ([3]; pH 3): 7 µM (≈ 2.35 µg/mL)
- solubility at 24 h ([3]; pH 7.4): 8 µM (≈ 2.68 µg/mL)
- solubility at 24 h ([3]; pH 10): 12 µM (≈ 4.02 µg/mL)

SMILES: COc1ccc(C(=O)N2CCOCC2)cc1 [4b, (4-Methoxyphenyl)(Morpholino)Methanone]
- logD [1]: 0.823
- HHEPG clearance [2]: < 3 μL min^−1 million^−1
- solubility at 24 h ([3]; pH 3): 461 µM (≈ 102 µg/mL)
- solubility at 24 h ([3]; pH 7.4): 574 µM (≈ 127 µg/mL)
- solubility at 24 h ([3]; pH 10): 465 µM (≈ 103 µg/mL)
- Papp at 1.5 h [4]: 48.3 ×10⁻⁶ cm/s

SMILES: COc1ccc(C(=O)NC(C)C(=O)N(C)C)cc1 (centres unmarked) [3b, N-(1-(Dimethylamino)-1-Oxopropan-2-yl)-4-Methoxybenzamide]
- logD [1]: 1
- HHEPG clearance [2]: < 2 μL min^−1 million^−1
- solubility at 24 h ([3]; pH 3): 461 µM (≈ 115 µg/mL)
- solubility at 24 h ([3]; pH 7.4): 574 µM (≈ 144 µg/mL)
- solubility at 24 h ([3]; pH 10): 465 µM (≈ 116 µg/mL)
- Papp at 1.5 h [4]: 32.2 ×10⁻⁶ cm/s

SMILES: COc1ccc(C2(NCc3ccccc3)COC2)cc1 [2a, N-Benzyl-3-(4-Methoxyphenyl)Oxetan-3-Amine]
- logD [1]: 2.49
- HHEPG clearance [2]: 62 μL min^−1 million^−1
- Kinetic solubility, in words [3]: higher solubility
- solubility at 24 h ([3]; pH 3): 521 µM (≈ 140 µg/mL)
- solubility at 24 h ([3]; pH 7.4): 359 µM (≈ 96.7 µg/mL)
- solubility at 24 h ([3]; pH 10): 285 µM (≈ 76.8 µg/mL)
- Papp at 1.5 h [4]: 36.5 ×10⁻⁶ cm/s

SMILES: COc1ccc(C(=O)NCC23C[C@H]4C[C@@H](C2)C[C@@H](C3)C4)cc1 [1b, N-(((3R,5R,7R)-Adamantan-1-yl)Methyl)-4-Methoxybenzamide]
- logD [1]: 3.83
- solubility at 24 h ([3]; pH 3): < 0.1 µM
- solubility at 24 h ([3]; pH 7.4): < 0.1 µM
- solubility at 24 h ([3]; pH 10): < 0.8 µM
- Papp at 1.5 h [4]: 32.7 ×10⁻⁶ cm/s

SMILES: COc1ccc(C(=O)Nc2ccc(OC)nc2)cc1 [8b, 4-Methoxy-N-(6-Methoxypyridin-3-yl)Benzamide]
- logD [1]: 2.49
- HHEPG clearance [2]: 13 μL min^−1 million^−1
- solubility at 24 h ([3]; pH 3): 50 µM (≈ 12.9 µg/mL)
- solubility at 24 h ([3]; pH 7.4): 31 µM (≈ 8.01 µg/mL)
- solubility at 24 h ([3]; pH 10): 24 µM (≈ 6.2 µg/mL)
- Papp at 1.5 h [4]: 20.9 ×10⁻⁶ cm/s

SMILES: O=C(c1ccc(Oc2ccccn2)cc1)N1CCOCC1 [9b, Morpholino(4-(Pyridin-2-yloxy)Phenyl)Methanone]
- logD [1]: 1.08
- HHEPG clearance [2]: < 2 μL min^−1 million^−1
- Papp at 1.5 h [4]: 47.2 ×10⁻⁶ cm/s

SMILES: c1ccc(Oc2ccc(C3(N4CCOCC4)COC3)cc2)nc1 [9a, 4-(3-(4-(Pyridin-2-yloxy)Phenyl)Oxetan-3-yl)Morpholine]
- logD [1]: 1.32
- HHEPG clearance [2]: 13 μL min^−1 million^−1
- Papp at 1.5 h [4]: 43.6 ×10⁻⁶ cm/s

SMILES: COc1ccc(C2(N[C@@H](C)C(=O)N(C)C)COC2)cc1 [3a, (S)-2-((3-(4-Methoxyphenyl)Oxetan-3-yl)Amino)-N,N-Dimethylpropanamide]
- Change in SFlogD of the carbonyl-to-oxetane replacement ([1]; pH 7.4, amino-oxetane versus matched benzamide): −0.59
- logD [1]: 0.418
- HHEPG clearance [2]: < 3 μL min^−1 million^−1
- Kinetic solubility, in words [3]: solubility comparable to their analogous benzamides
- solubility at 24 h ([3]; pH 3): 464 µM (≈ 129 µg/mL)
- solubility at 24 h ([3]; pH 7.4): 472 µM (≈ 131 µg/mL)
- solubility at 24 h ([3]; pH 10): 458 µM (≈ 127 µg/mL)
- Papp at 1.5 h [4]: 27.3 ×10⁻⁶ cm/s

SMILES: O=C(c1ccc(S(=O)(=O)c2ccccc2)cc1)N1CCOCC1 [10b, Morpholino(4-(Phenylsulfonyl)Phenyl)Methanone]
- logD [1]: 1.11
- HHEPG clearance [2]: < 2 μL min^−1 million^−1
- Papp at 1.5 h [4]: 37.8 ×10⁻⁶ cm/s

SMILES: c1cc(C2(N3CCOCC3)COC2)ccc1N1CCOCC1 [12a, 4-(4-(3-Morpholinooxetan-3-yl)Phenyl)Morpholine]
- logD [1]: 0.331
- HHEPG clearance [2]: 11 μL min^−1 million^−1
- Papp at 1.5 h [4]: 39.3 ×10⁻⁶ cm/s

SMILES: COc1ccc(C2(Nc3ccc(NC(C)=O)cc3)COC2)cc1 [6a, N-(4-((3-(4-Methoxyphenyl)Oxetan-3-yl)Amino)Phenyl)Acetamide]
- HHEPG clearance [2]: 112 μL min^−1 million^−1
- Kinetic solubility, in words [3]: higher solubility
- solubility at 24 h ([3]; pH 3): 509 µM (≈ 159 µg/mL)
- solubility at 24 h ([3]; pH 7.4): 505 µM (≈ 158 µg/mL)
- solubility at 24 h ([3]; pH 10): 500 µM (≈ 156 µg/mL)

SMILES: COc1ccc(C(=O)Nc2ccc3c(c2)OC(F)(F)O3)cc1 [7b, N-(2,2-Difluorobenzo[d][1,3]dioxol-5-yl)-4-Methoxybenzamide]
- logD [1]: 3.81
- solubility at 24 h ([3]; pH 3): < 0.1 µM
- solubility at 24 h ([3]; pH 7.4): < 0.1 µM
- solubility at 24 h ([3]; pH 10): < 0.1 µM
- Papp at 1.5 h [4]: 28.3 ×10⁻⁶ cm/s

SMILES: FC(F)(F)c1ncc(-c2ccc(C3(N4CCOCC4)COC3)cc2)cn1 [11a, 4-(3-(4-(2-(Trifluoromethyl)Pyrimidin-5-yl)Phenyl)Oxetan-3-yl)Morpholine]
- logD [1]: 1.66
- HHEPG clearance [2]: < 2 μL min^−1 million^−1
- Papp at 1.5 h [4]: < 36.1 ×10⁻⁶ cm/s

SMILES: O=C(c1ccc(-c2cnc(C(F)(F)F)nc2)cc1)N1CCOCC1 [11b, Morpholino(4-(2-(Trifluoromethyl)Pyrimidin-5-yl)Phenyl)Methanone]
- logD [1]: 1.31
- HHEPG clearance [2]: < 2 μL min^−1 million^−1
- Papp at 1.5 h [4]: 43.2 ×10⁻⁶ cm/s

SMILES: O=C(c1ccc(N2CCOCC2)cc1)N1CCOCC1 [12b, 4-Morpholinonebenzene-4-Yl-Morpholine]
- logD [1]: 0.444
- HHEPG clearance [2]: < 2 μL min^−1 million^−1
- Papp at 1.5 h [4]: 36.4 ×10⁻⁶ cm/s
